Laboratory results reported in patent publication US20190038624A1 (priority 2017, published 2019).
Where two headings read alike, the source gives them in different places.

Test system: patients with probable MSA
Assay type: in vivo, human
Conditions: average of five patients, oral 200 mg daily
Procedure: Five patients fulfilled the consensus criteria for “probable MSA” and received oral Nilotinib 200 mg daily for 24 weeks. Disease progression was monitored every 4 weeks by measuring the patient's motor and non-motor symptoms with the Unified Multiple System Atrophy Rating Scale (UMSARS). Mini Mental State Examination (MMSE) was used to screen for cognitive impairment. […] However, these AEs resolved with continued administration of the drug. […] Furthermore, there was a significant decline of 6.8 and 2.2 points in the UMSARS and UMSARS-II, respectively, compared to baseline (see FIG. 2). MMSE results were normal throughout treatment.

## Cc1cn(-c2cc(NC(=O)c3ccc(C)c(Nc4nccc(-c5cccnc5)n4)c3)cc(C(F)(F)F)c2)cn1 [Nilotinib]
Week 4
  UMSARS, Average: 52.6 points
  UMSARS-II, Average: 22.2 points
Week 8
  UMSARS, Average: 52.4 points
  UMSARS-II, Average: 22.2 points
Week 12
  UMSARS, Average: 50.8 points
  UMSARS-II, Average: 22 points
Week 16
  UMSARS, Average: 49.4 points
  UMSARS-II, Average: 21.6 points
Week 20
  UMSARS, Average: 47.8 points
  UMSARS-II, Average: 21.2 points
Week 24
  UMSARS, Average: 46.6 points
  UMSARS-II, Average: 20.6 points
